≈ marks a conversion by molar mass, not a printed value. Counter-ions that a name gives are not always drawn.
Experiments:
[1] = Water solubility of racemic and optically active dihydropyridines, free or bound in inclusion complexes (room temperature, filtrates of saturated solutions, liquid chromatography); settings: for Water solubility, complex. HE-β-CD: bound in inclusion complex with HE-β-CD (2-hydroxyethyl-cyclodextrin); for Water solubility, complex. HP-β-CD: bound in inclusion complex with HP-β-CD (2-hydroxypropyl-cyclodextrin); for Water solubility, complex. Me-β-CD: bound in inclusion complex with Me-β-CD; for Water solubility, complex. β-CD: bound in inclusion complex with β-CD; for Water solubility of particular enantiomers (in words): (-) compared with (+) nicardipine.HCl; for Water solubility, uncomplex.: free form
physchem = settings: water
[2] = one enantiomer versus the other; literature; cited from earlier work
[3] = by means of DIMEB (heptakis-(2,6-di-O-dimethyl)-β-cyclodextrin); cited from earlier work

SMILES | Water solubility, complex. HE-β-CD ([1]; room temperature) | Water solubility, complex. HP-β-CD ([1]; room temperature) | Water solubility, complex. Me-β-CD ([1]; room temperature) | Water solubility, complex. β-CD ([1]; room temperature) | solubility (physchem) | other results
COC(=O)C1=C(C)NC(C)=C(C(=O)OCCN(C)Cc2ccccc2)C1c1cccc([N+](=O)[O-])c1 (racemic) [(±)nicardipine.HCl, 2-(N-benzyl-N-methyl-amino)-ethylmethyl-2,6-dimethyl-4-(3-nitrophenyl) -1,4-dihydropyridine-3,5-dicarboxylatehydrochloride] | 53.8 mg/mL | 97.9 mg/mL | 145.8 mg/mL | 54.8 mg/mL | 1.5 mg/mL | 
CCOC(=O)C1=C(C)NC(C)=C(C(=O)OC)C1c1cccc([N+](=O)[O-])c1 (racemic) [(±)nitrendipine, 3-ethyl-5-methyl-1,4-dihydro-2,6-dimethyl-4-(3-nitrophenyl)-3,5-pyridinedicarboxylate] |  |  |  |  | 0.0006 mg/mL (≈ 1.66 µM) | 
CCOC(=O)C1=C(COCCN)NC(C)=C(C(=O)OC)[C@H]1c1ccccc1Cl (single isomer, unassigned) [R-(-) isomer of amlodipine] |  |  |  |  |  | activity relative to the other enantiomer [2]: substantially higher activity
COC(=O)C1=C(C)NC(C)=C(C(=O)OCCN(C)Cc2ccccc2)C1c1cccc([N+](=O)[O-])c1 (single isomer, unassigned; (+)) [(+) nicardipine] |  |  |  |  |  | activity relative to the other enantiomer [2]: three times higher activity
COC(=O)C1=C(C)NC(C)=C(C(=O)OCCN(C)Cc2ccccc2)C1c1cccc([N+](=O)[O-])c1 (single isomer, unassigned; (+)) [(+)nicardipine.HCl] | 52.7 mg/mL | 59.9 mg/mL | 133.1 mg/mL | 15.8 mg/mL |  | Water solubility of particular enantiomers (in words) [1]: different water solubilities; Water solubility, uncomplex. ([1]; room temperature): 0.4 mg/mL
COC(=O)C1=C(C)NC(C)=C(C(=O)OCCN(C)Cc2ccccc2)C1c1cccc([N+](=O)[O-])c1 (single isomer, unassigned; (-)) [(-)nicardipine.HCl] | 54.2 mg/mL | 68.0 mg/mL | 127.4 mg/mL | 15.6 mg/mL |  | Water solubility of particular enantiomers (in words) [1]: different water solubilities; Water solubility, uncomplex. ([1]; room temperature): 0.1 mg/mL; Water solubility, complex. HP-β-CD (molar ratio 1:2) ([1]; molar ratio of the complex (-)NC.HCl:HP CD amounts to 1:2, room temperature): 130.0 mg/mL
CCOC(=O)C1=C(COCCN)NC(C)=C(C(=O)OC)C1c1ccccc1Cl (centres unmarked) [amlodipine besylate, 3-ethyl-5-methyl-2-[(2-aminoethoxy)methyl]-4-(2-chlorophenyl) 1,4-dihydro-6-methyl-3,5-pyridinedicarboxylate-monobenzensulfonate] | 4.5 mg/mL | 17.0 mg/mL | 25.0 mg/mL | 10.0 mg/mL | 1.1 mg/mL | Water solubility (in words) ([1]; comparison in words, inclusion complexes with Me-β-CD): improved water solubility
CCOC(=O)C1=C(C)NC(C)=C(C(=O)OC)C1c1cccc(Cl)c1Cl (centres unmarked) [felodipine, ethylmethyl-1,4-dihydro-2,6-dimethyl-4-(2,3-dichlorophenyl)-3,5-pyridinedicarboxylate] |  |  |  |  | 0.0008 mg/mL (≈ 2.08 µM) | 
COc1ccc2c(c1)c(CC(=O)O)c(C)n2C(=O)c1ccc(Cl)cc1 [indometacin] |  |  |  |  |  | enhancement of water solubility [3]: 20.4 times

Reference: patent publication US5519012A, “Inclusion complexes of optically active 1,4-dihydropyridines with methyl-β-cyclodextrin” (LEK, tovarna farmacevtskih in kemicnih izdelkov, d.d., …, priority 1992, dated 1996)
